Results reported in US20070154990A1, “Assays for identifying inhibitors of fatty acid amide hydrolase” (priority 2005, published 2007).
Substitutions are numbered along the chain they refer to. pIC50, pKd: −log10 of the molar value. Read-outs that look alike come from different tables or passages of the source.

Experiments:
human FAAH [1] = molecular target: T1, human FAAH (Homo sapiens, UniProt O00519); assay: [3H]-anandamide (AEA) hydrolysis by FAAH microsomes; type: biochemical
T1 construct: His6; made in house; host or cells: CHO cells, stably transfected; microsomal fraction used
T1 sequence (O00519 1-579): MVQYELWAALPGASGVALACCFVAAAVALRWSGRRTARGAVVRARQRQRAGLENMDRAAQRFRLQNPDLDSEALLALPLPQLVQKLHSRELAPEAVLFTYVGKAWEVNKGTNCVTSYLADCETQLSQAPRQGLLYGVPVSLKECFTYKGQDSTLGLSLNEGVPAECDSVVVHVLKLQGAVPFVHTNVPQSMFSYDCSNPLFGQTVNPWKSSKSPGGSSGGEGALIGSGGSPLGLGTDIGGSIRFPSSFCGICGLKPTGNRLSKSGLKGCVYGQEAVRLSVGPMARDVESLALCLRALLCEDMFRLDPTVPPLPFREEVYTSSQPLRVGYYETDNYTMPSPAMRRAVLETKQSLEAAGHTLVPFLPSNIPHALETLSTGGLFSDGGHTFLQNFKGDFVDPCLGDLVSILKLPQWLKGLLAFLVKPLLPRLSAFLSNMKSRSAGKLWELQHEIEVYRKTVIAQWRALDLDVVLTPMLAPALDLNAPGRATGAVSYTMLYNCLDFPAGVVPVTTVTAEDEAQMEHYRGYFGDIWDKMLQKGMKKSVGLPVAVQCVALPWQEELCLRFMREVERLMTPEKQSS
Procedure: 0.5 μg of human FAAH microsomes were incubated with 1 μM [^3H]-AEA substrate and indicated concentrations of MAEA in assay buffer at room temperature for 2 hours. Released [^3H]-ethanolamine was extracted by chloroform/methanol and counted.
Panel (B) Effect of MAEA on the kinetics of AEA hydrolysis by FAAH-containing microsomes. 0.5 μg of the microsomes comprising FAAH were incubated with the indicated [^3H]-AEA concentrations for 30 minutes with or without 10 μM of MAEA. Released [^3H]-ethanolamine was measured in a scintillation counter.
Microsomes (0.5 μg/assay) prepared from CHO cells expressing human FAAH, were incubated with the indicated concentrations of anandamide (ethanolamine 1-[^3H]) for 30 min at 25° C. in 50 mM HEPES, pH 7.4, 1 mM EDTA and 0.1% BSA. The reaction was terminated by the addition of 2 volumes of chloroform/methanol (1:1, v/v). The samples were vortexed and centrifuged at 1000 g for 3 minutes. The aqueous phase, containing [^3H]-ethanolamine, was collected and measured by liquid scintillation counting. Results are presented as the mean±S.E. of triplicate measurements from at least two independent experiments. The observed rate constants (apparent Km) were calculated using GraphPad Prism 3.02, based on a Michaelis-Menten (one site binding hyperbola) equation Y=BmaxX/[Km+X].
The AEA hydrolysis assays were performed according to the protocols described in Example 1. 0.5 μg of FAAH-containing microsomes per assay were incubated with 8 different concentrations (in a range from 1 μM to 10 μM) of compound in the presence of 1 μM […] in 50 mM HEPES, pH 7.5, 1 mM EDTA, 0.1% BSA at room temperature for 2 hours. ^3H-ethanolamine released from AEA hydrolysis was measured by liquid scintillation counting. Results were analyzed using a sigmoidal dose-response equation by GraphPad Prism 3.02. Numerical results are the mean of triplicate measurements from at least two independent experiments.

human FAAH [2] = molecular target: T1, human FAAH; assay: FAAH SPA binding assay (displacement of [3H]-MAEA from FAAH-containing microsomes); conditions: for pIC50: 3 hours room temperature
Procedure: FIG. 3. One embodiment of a FAAH SPA assay. […] The radioactivity was counted on a TopCount™ for one minute per sample. Each point shown is the mean±SD of triplicates from at least two independent experiments.
FIG. 7. Inhibition of the binding of [^3H]-MAEA to FAAH-containing microsomes by FAAH inhibitors in SPA. The assay was carried out by incubating 5 μg of FAAH microsomes with 100 nM [^3H]-MAEA and 0.5 mg of WGA beads in 50 mM HEPES, 1 mM EDTA, pH 7.4, 0.1% BSA, with inhibitors in a 200 μL total reaction volume, at room temperature for 3 hours. The final concentration of DMSO in the assay was 0.5%. IC50 values were calculated by fitting the curve to a non-linear regression equation. Each point is the mean±SD of triplicate data from at least two independent experiments.
The SPA assay consisted of 100 nM [^3H]-MAEA (60 Ci/mmol), […] FAAH microsomes and 0.5 mg PVT-WGA beads in buffer (50 mM HEPES, pH 7.4, 1 mM EDTA and 0.1% BSA). The assays were performed in 96 well plates with a final volume of 200 μL. Components were added to the assay plates, which were agitated on a plate shaker for 3-4 hours at room temperature. The assays were then counted on a TopCount NXT (PerkinElmer, Boston, Mass.) for one minute per well. Results presented are the mean±S. E. of triplicate measurements from at least two independent experiments. The IC50 values were calculated using the GraphPad Prism 3.02 program, based on a sigmoidal dose-response equation. The screening window coefficient (Z′-factor) was calculated according to the following equation as previous described (See Zhang, J. H., T. D. Chung, and K. R. Oldenburg, A simple statistical parameter for use in evaluation and validation of high throughput screening assays, J Biomol Screen, 1999, 4: 67-73): Z=1−(3σc++3σc−)/|μc+−μc−| where, σc+ and σc− are standard deviations of positive and negative controls and μc+ and μc− are means of positive and negative controls respectively.
Assays were performed by incubating 0.5 mg of PVT-WGA beads, 100 nM [3H]-MAEA, and 5 μg of FAAH-containing microsomes. Assays were incubated in the wells of 96-well plates.

[3] = SPA binding of [3H]-MAEA to microsomes from CHO cells containing only vector; design: species or system Chinese hamster; conditions: 5 μg microsomes from cells containing only vector
Procedure: (§1) FIG. 4. […] The relative activity of FAAH-containing microsomes or those prepared from cells expressing FAAH-S241A or vector control was measured by increasing the microsomal protein concentration ranging from 0-10 μg/assay. 100 nM of [^3H]-MAEA and 0.5 mg of WGA SPA beads were incubated with indicated concentrations of microsomes at 25° C. for 3 hours. Radioactivity was measured in a TopCount™. The SPA signal (CPM) was plotted against amount of microsomal protein in the assay. Each point is the mean±SD of triplicate data from at least two independent experiments.
(§2) Cells were collected by centrifugation at 2000 g for 10 minutes at 4° C. in a Sorvall high-speed centrifuge. The cell pellet was then washed 3 times with PBS and resuspended in buffer containing 50 mM HEPES, pH 7.4, 1 mM EDTA, 1 μM pepstatin, 100 μM leupeptin, 0.1 mg/mL aprotinin. The cells were sonicated 5 times for 10 seconds at 15-second intervals and the cell lysate was further centrifuged at 12000 g for 20 minutes at 4° C. The supernatant was centrifuged at 100,000 g for 30 minutes in a SW28 rotor in a Beckman Optima LE-80K centrifuge. The pellet obtained was the microsomal fraction, which was resuspended in ice-cold buffer. Protein concentration was measured by the BCA method (Pierce) and the microsomal suspension adjusted to 1 mg/mL and stored in aliquots at −80° C. until use. […]

FAAH microsomes = molecular target: T2, FAAH microsomes (Homo sapiens, UniProt O00519); assay: Hydrolysis of [3H]-MAEA by FAAH microsomes; type: biochemical; conditions: 5 μg FAAH microsomes over 5 hours
T2 construct: His6; made in house; host or cells: CHO cells, stably transfected; microsomal fraction used
T2 sequence (O00519 1-579): T1 sequence (O00519 1-579)
Description: R(+)-methanandamide (R-(+)-arachidonyl-1-′-hydroxy-2′-propylamide, MAEA) is an anandamide analog with a methyl group at the 1′-position of the ethanolamido head group. […] The effects of MAEA on FAAH-catalyzed anandamide hydrolysis was also examined using FAAH-containing microsomes.

inactive FAAH-S241A = molecular target: T3, inactive FAAH-S241A (Homo sapiens, UniProt O00519, S241A); assay: SPA binding of [3H]-MAEA to microsomes with inactive FAAH-S241A mutant; conditions: 5 μg microsomes containing inactive FAAH-S241A
T3 construct: His6; made in house; host or cells: CHO cells, stably transfected; microsomal fraction used
T3 sequence (O00519 1-579 S241A): T1 sequence (O00519 1-579) with S241A
Procedure: as §1, §2

[4] = 0.5 μg FAAH-containing microsomes, 1 μM radiolabelled substrate, room temperature 2 hours, read-out: AEA hydrolysis (IC50)
[5] = 5 μg FAAH microsomes, 100 nM [3H]-MAEA, 0.5 mg WGA beads

Compound: CCCCC/C=C\C/C=C\C/C=C\C/C=C\CCCC(=O)NCCO [AEA, arachidonyl ethanolamide]
- Km (human FAAH [1]; FAAH-containing microsomes, without MAEA, read-out: apparent Km for AEA (no inhibitor)): 9.1 µM

Compound: CCCCCCCCCCCC(=O)c1nc2ncccc2o1 [CAY-10400]
- pIC50 (human FAAH [1]; [4]): 8.64
- pIC50 (human FAAH [2]; [5]): 8.51

Compound: CCCCC/C=C\C/C=C\C/C=C\C/C=C\CCCC(=O)N[C@H](C)CO [MAEA, R-(+)-arachidonyl-1-′-hydroxy-2′-propylamide]
- pIC50 (human FAAH [1]; 0.5 μg human FAAH microsomes, 1 μM [3H]-AEA, 2 hours, read-out: IC50 of inhibition of FAAH-catalyzed anandamide hydrolysis): 5.13
- mode of inhibition (Lineweaver-Burk plot) (human FAAH [1]; 10 μM MAEA): competitive FAAH inhibitor
- Vmax of AEA hydrolysis in the presence of the compound (human FAAH [1]; MAEA at 10 μM, 30 minutes): 25.82 nmol/min/mg protein
- Km (human FAAH [1]; MAEA at 10 μM, 30 minutes, read-out: apparent Km for AEA in the presence of the compound): 62.3 µM
- specific binding of [3H]-MAEA to microsomes [3]: 6.1%
- pKd (human FAAH [2]; 2 μg FAAH microsomes, 0.5 mg PVT-WGA beads, estimated, read-out: Kd of specific binding to FAAH microsomes): 4.60
- specific binding of [3H]-MAEA to microsomes (human FAAH [2]; 5 μg microsomes containing FAAH): 90%
- total [3H]-MAEA bound to FAAH microsomes (human FAAH [2]; 5 μg microsomes, 100 nM [3H]-MAEA, 0.5 mg WGA beads): ~92%
- [3H]-MAEA degraded (FAAH microsomes): less than 1.5%
- specific binding of [3H]-MAEA to microsomes (inactive FAAH-S241A): 6.5%

Compound: NC(=O)c1cccc(-c2cccc(OC(=O)NC3CCCCC3)c2)c1 [URB-597]
- SPA counts in the presence of inhibitor (human FAAH [2]; URB-597 1 μM, 5 μg FAAH microsomes, 100 nM [3H]-MAEA, 160 cpm without inhibitor): 1932 cpm
- effect on the interaction of [3H]-MAEA and the WGA beads (human FAAH [2]; same concentration of URB-597 (1 μM), no microsomes): no effect

Compound: Arachidonoyl trifluoromethyl ketone [ATFK]
- pIC50 (human FAAH [1]; [4]): 8.00
- pIC50 (human FAAH [2]; [5]): 7.06
